In ChEMBL document CHEMBL2390858, “Design, synthesis and anti-tuberculosis activity of 1-adamantyl-3-heteroaryl ureas with improved in vitro pharmacokinetic properties” (Bioorg Med Chem, 2013) one finds MIC, IC50 and solubility data, which are given here for 12 compounds.

Molecules are shown by their SMILES. pIC50: −log10 of the molar value. In brackets after ≈: the same amount, converted by molar mass. Where only a bound is given, the exact number is not on record here.

Series [1] concerns Proteus vulgaris. Put plainly: microbe, parasite or virus in culture.
Series [2] deals with Enterococcus faecalis. Put plainly: microbe, parasite or virus in culture.
Series [3] relates to Pseudomonas aeruginosa. Put plainly: microbe, parasite or virus in culture.
For series [4], the system named is Staphylococcus aureus. Put plainly: microbe, parasite or virus in culture. Conditions: NRS70.
Series [5] has as its system Staphylococcus aureus. Put plainly: microbe, parasite or virus in culture. As to conditions: ATCC 29213.
Series [6] concerns Streptococcus pyogenes. Briefly: microbe, parasite or virus in culture.
In series [7] the test system is Bacillus anthracis. Put plainly: microbe, parasite or virus in culture. As to conditions: Sterne.
In series [8] the test system is Bacillus subtilis. Put plainly: microbe, parasite or virus in culture.
Series [9] addresses T1, Bifunctional epoxide hydrolase 2 (Homo sapiens, UniProt P34913).
T1 sequence (P34913 whole entry): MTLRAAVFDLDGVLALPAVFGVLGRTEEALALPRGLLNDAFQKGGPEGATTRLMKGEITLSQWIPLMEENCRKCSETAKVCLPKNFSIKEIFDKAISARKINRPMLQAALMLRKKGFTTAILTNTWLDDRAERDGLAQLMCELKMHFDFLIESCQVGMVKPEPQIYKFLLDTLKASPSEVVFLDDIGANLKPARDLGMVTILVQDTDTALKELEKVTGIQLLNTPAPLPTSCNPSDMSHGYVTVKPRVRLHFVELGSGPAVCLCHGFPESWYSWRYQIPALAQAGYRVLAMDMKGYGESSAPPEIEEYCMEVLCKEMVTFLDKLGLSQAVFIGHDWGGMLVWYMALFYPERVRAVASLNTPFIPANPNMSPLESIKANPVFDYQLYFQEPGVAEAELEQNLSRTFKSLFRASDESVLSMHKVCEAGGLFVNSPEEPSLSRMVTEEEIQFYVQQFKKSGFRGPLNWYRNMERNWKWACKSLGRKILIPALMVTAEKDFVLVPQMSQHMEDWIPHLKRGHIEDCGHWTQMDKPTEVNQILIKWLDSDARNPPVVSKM

Series [10] concerns Burkholderia cepacia. Put plainly: microbe, parasite or virus in culture.
Series [11] has as its system Escherichia coli. Put plainly: microbe, parasite or virus in culture. As to conditions: K-12.
Series [12] concerns Klebsiella pneumoniae. Put plainly: microbe, parasite or virus in culture.
Series [13] concerns Streptococcus pneumoniae. Briefly: microbe, parasite or virus in culture.
Series [14] deals with Acinetobacter. Put plainly: microbe, parasite or virus in culture.
Series [15] has as its system Vero. Briefly: cells. Conditions: Chlorocebus sabaeus, 72 h.
In series [16] the test system is Mycobacterium tuberculosis. Briefly: microbe, parasite or virus in culture. Conditions: H37Rv, 168 h.
Series [17] has as its system Proteus mirabilis. Briefly: microbe, parasite or virus in culture.
For series [18] the following is noted: buffer, 18 h, pH 7.4.

Usually pIC50 stands for −log10 of the IC50, conventionally taken in molar units. Higher therefore signals a small IC50. By IC50 is commonly meant the concentration that inhibits the measured activity by half. Higher therefore signals weaker potency. With `Cc1cnc(NC(=O)NC23CC4CC(CC(C4)C2)C3)s1`, the MIC in series [1] was > 200 µg/mL; in [2], 200 µg/mL (≈ 686 µM); in series [3] it was > 200 µg/mL; in [4] it was 200 µg/mL (≈ 686 µM); in series [5], > 200 µg/mL; in [6] it was > 200 µg/mL. Further, the MIC in series [7], in series [8], in series [10], in series [11], in series [12] and in series [13] was > 200 µg/mL throughout. Besides, the MIC in series [14] was > 200 µg/mL; in series [16] it was 3.13 µg/mL (≈ 10.7 µM); in [17] it was > 200 µg/mL. Moreover, the pIC50 in series [9] is 6.94. In addition, the IC50 in [15] came out at 23 µg/mL (≈ 78.9 µM).

Regarding `CCn1nc(NC(=O)NC2C3CC4CC(C3)CC2C4)cc1C` (centres undefined), the MIC was > 200 µg/mL in [1]; > 200 µg/mL in [2]; > 200 µg/mL in [3]; > 200 µg/mL in series [4]; 100 µg/mL (≈ 331 µM) in [5]; > 200 µg/mL in series [6]. Besides, the MIC in [7], in series [8], in series [10], in [11], in [12] and in series [13] was > 200 µg/mL each time. In addition, the MIC in series [14] was > 200 µg/mL; in [16] it was 3.13 µg/mL (≈ 10.3 µM); in series [17], > 200 µg/mL. In series [9], the pIC50 was 5.61. In [15], the midpoint of inhibition, the IC50, lay at 163 µg/mL (≈ 539 µM).

In the case of `O=C(Nc1nccs1)NC12CC3CC(CC(C3)C1)C2`, the MIC in series [1], in series [2], in [3], in series [4], in [5] and in series [6] was > 200 µg/mL throughout. Also, the MIC was > 200 µg/mL in [7]; > 200 µg/mL in series [8]; > 200 µg/mL in series [10]; > 200 µg/mL in series [11]; > 200 µg/mL in series [12]; 100 µg/mL (≈ 360 µM) in series [13]. In addition, the MIC was > 200 µg/mL in series [14], 3.13 µg/mL (≈ 11.3 µM) in [16] and > 200 µg/mL in series [17]. In addition, the pIC50 in [9] was 7.08. The IC50 in series [15] was determined as 22 µg/mL (≈ 79.3 µM).

Consider `CCCn1nc(NC(=O)NC23CC4CC(CC(C4)C2)C3)cc1C`, for which the MIC in series [1], in series [2], in series [3], in [4], in [5] and in series [6] was > 200 µg/mL each time. Moreover, the MIC in series [7], in series [8], in series [10], in [11], in [12] and in [13] was > 200 µg/mL each time. The figures for the MIC in series [14], in [16] and in [17] were > 200 µg/mL, 1.56 µg/mL (≈ 4.93 µM) and > 200 µg/mL, respectively. The compound further showed a pIC50 in series [9] of 6.12. Half-maximal inhibition in series [15] (IC50) required 26 µg/mL (≈ 82.2 µM).

On to `O=C(Nc1nc2ccccc2s1)NC12CC3CC(CC(C3)C1)C2`, for which the MIC in [1], in series [2], in [3], in series [4], in [5] and in series [6] was > 200 µg/mL throughout. The MIC is 200 µg/mL (≈ 611 µM) in series [7]; 200 µg/mL (≈ 611 µM) in [8]; > 200 µg/mL in series [10]; > 200 µg/mL in series [11]; > 200 µg/mL in series [12]; > 200 µg/mL in [13]. The MIC in series [14] was > 200 µg/mL; in series [16], 0.78 µg/mL (≈ 2.38 µM); in series [17], > 200 µg/mL. In series [9], this compound gave a pIC50 of 8.52. Moreover, the IC50 in series [15] was determined as 17 µg/mL (≈ 51.9 µM).

As a reminder, the solubility is how much of the substance goes into solution per volume. In the case of `Cc1nnc(NC(=O)NC23CC4CC(CC(C4)C2)C3)o1`, the MIC in [1], in series [2], in series [3], in series [4], in series [5] and in [6] was > 200 µg/mL in each case. Moreover, the MIC in series [7], in series [8], in series [10], in series [11], in series [12] and in series [13] was > 200 µg/mL each time. Further, the figures for the MIC in series [14], in series [16] and in series [17] were > 200 µg/mL, 25 µg/mL (≈ 90.5 µM) and > 200 µg/mL, respectively. The compound further returned a solubility in series [18] of 9.77 µg/mL (≈ 35.4 µM). Further, in series [9], the pIC50 is 6.23.

`O=C(Nc1nnc(C2CC2)o1)NC12CC3CC(CC(C3)C1)C2`: the MIC in series [1], in series [2], in series [3], in [4], in series [5] and in series [6] was > 200 µg/mL in each case. For the same compound, the MIC in series [7] was 50 µg/mL (≈ 165 µM); in [8], 100 µg/mL (≈ 331 µM); in series [10], > 200 µg/mL; in series [11] it was > 200 µg/mL; in series [12], > 200 µg/mL; in series [13], > 200 µg/mL. The figures for the MIC in series [14], in series [16] and in series [17] were > 200 µg/mL, 12.5 µg/mL (≈ 41.3 µM) and > 200 µg/mL, respectively. The compound also returned a solubility in series [18] of 38.3 µg/mL (≈ 127 µM). Moreover, the pIC50 in [9] was 6.30.

`O=C(Nc1ccon1)NC12CC3CC(CC(C3)C1)C2`: the MIC is > 200 µg/mL in [1]; 100 µg/mL (≈ 383 µM) in [2]; > 200 µg/mL in series [3]; > 200 µg/mL in series [4]; > 200 µg/mL in series [5]; > 200 µg/mL in series [6]. In addition, the MIC in series [7] was > 200 µg/mL; in series [8] it was > 200 µg/mL; in series [10], 100 µg/mL (≈ 383 µM); in [11], > 200 µg/mL; in series [12] it was > 200 µg/mL; in [13] it was > 200 µg/mL. Also, the values for the MIC in series [14], in [16] and in series [17] were > 200 µg/mL, 50 µg/mL (≈ 191 µM) and > 200 µg/mL, respectively. Further, the solubility in series [18] was determined as 20.3 µg/mL (≈ 77.7 µM). In [9], this compound showed a pIC50 of 7.34.

For `O=C(Nc1cccnc1)NC12CC3CC(CC(C3)C1)C2`, the MIC in [1], in series [2], in [3], in [4], in series [5] and in series [6] was > 200 µg/mL in each case. For the same compound, the MIC in [7], in [8], in [10], in [11], in [12] and in series [13] was > 200 µg/mL each time. For the same compound, the MIC was > 200 µg/mL in [14], 12.5 µg/mL (≈ 46.1 µM) in [16] and > 200 µg/mL in [17]. For the same compound, the solubility in [18] was 6.7 µg/mL (≈ 24.7 µM). The pIC50 in series [9] was 6.95.

`O=C(Nc1ccncn1)NC12CC3CC(CC(C3)C1)C2`: the MIC is > 200 µg/mL in series [1]; > 200 µg/mL in [2]; > 200 µg/mL in [3]; > 200 µg/mL in [4]; 100 µg/mL (≈ 367 µM) in series [5]; > 200 µg/mL in series [6]. The MIC in [7] is > 200 µg/mL; in series [8], 50 µg/mL (≈ 184 µM); in series [10] it was 200 µg/mL (≈ 734 µM); in [11], > 200 µg/mL; in series [12], > 200 µg/mL; in [13], 50 µg/mL (≈ 184 µM). In addition, the MIC was > 200 µg/mL in series [14], 25 µg/mL (≈ 91.8 µM) in series [16] and > 200 µg/mL in [17]. In addition, the solubility in [18] was 15.5 µg/mL (≈ 56.9 µM). This compound had a pIC50 in series [9] of 6.11.

Regarding `Cc1cc(CNC(=O)NC23CC4CC(CC(C4)C2)C3)no1`, the MIC in series [1], in [2], in series [3], in series [4], in series [5] and in series [6] was > 200 µg/mL throughout. For the same compound, the MIC in series [7], in [8], in series [10], in [11], in series [12] and in series [13] was > 200 µg/mL throughout. Also, the MIC in [14] is > 200 µg/mL; in [16], > 50 µg/mL; in series [17], > 200 µg/mL. For the same compound, in [18], the solubility is 3 µg/mL (≈ 10.4 µM). The same compound gave a pIC50 in series [9] of 5.81.

For `O=C(Nc1ncco1)NC1C2CC3CC(C2)CC1C3` (centres undefined), the MIC in [1] was > 200 µg/mL; in [2], > 200 µg/mL; in series [3], > 200 µg/mL; in [4], 200 µg/mL (≈ 765 µM); in series [5] it was > 200 µg/mL; in series [6], > 200 µg/mL. Moreover, the MIC in [7] was > 200 µg/mL; in series [8], > 200 µg/mL; in series [10], 6.25 µg/mL (≈ 23.9 µM); in [11], > 200 µg/mL; in series [12] it was > 200 µg/mL; in [13], > 200 µg/mL. Further, the MIC in [14] is > 200 µg/mL; in series [16], 12.5 µg/mL (≈ 47.8 µM); in [17] it was > 200 µg/mL. In addition, the solubility in series [18] is 14.9 µg/mL (≈ 57 µM). The compound also gave a pIC50 in series [9] of 7.34.
